From patent publication US6080755A, “1,9-diazabicyclo[4.3.0]nona-3,8-diene derivatives” (Wyeth Lederle Japan, Ltd., priority 1995, dated 2000)

System: Isolated Rat Hearts
Test: Cardioprotective Effect in Ischemia/Reperfusion Model of Isolated Rat Hearts
Design: species or system Male Sprague-Dawley rats
Conditions: 10^-5 mol of test compound in 0.04% DMSO; 25 min global ischemia, after reperfusion for 30 minutes
Description: Cardioprotective Effect in Ischemia/Reperfusion Model of Isolated Rat Hearts:
Male Sprague-Dawley rats (300-500 g) were used. The rats were anesthetized using 40 mg/kg of sodium pentobarbital (i.p.) after treating with heparin (i.v. 1000 U/kg). The hearts were excised and moved quickly to a Langendorlf apparatus where they were perfused with Krebs-Henseleit bicarbonate buffer (118 mM of NaCl; 4.7 mM of KCl; 2.55 mM of CaCl2; 1.18 mM of KH2 PO4; 24.88 mM of NaHCO3; 11.1 mM of glucose) bubbled with mixture gas of 95% oxygen and 5% carbon dioxide at a constant perfusion pressure (75 mmHg). The parameters of cardiac function were determined as follows.
The physiological saline-filled latex balloon was inserted into the left ventricle and connected to a pressure transducer for measurement of left ventricular pressure (LVP). The volume of the balloon was adjusted to produce an LV end-diastolic pressure at 5-10 mmHg. The heart rate was determined with a tachometer and coronary flow was determined with an extra-corporeal electromagnetic flow tube.
For the equilibration, the hearts were perfused for initial 15-20 minutes. Then, treatment with the test compounds was begun 15 minutes before the onset of ischemia. Global ischemia was initiated by shutting off the perfusate flow and this was maintained for 25 minutes. The hearts were submerged in 37° C. buffer during ischemia. Reperfusion was then begun with the test compounds and the hearts were allowed to recover for 30 minutes. The cardiac function was measured before the treatment of the test compounds, before ischemia and after reperfusion. The hearts were treated with 10^-5 mol of the test compounds dissolved in 0.04% of dimethylsulfoxide (DMSO), in comparison with the vehicle, i.e., 0.04% of DMSO alone, in the perfusate.
The cardioprotective effects of the test compounds were evaluated on the basis of the extent of recovery of LVP after reperfusion for 30 minutes.

| Compound | LVDP(%): recovery of LVP, left ventricular developed pressure against the LVP before ischemia as 100% |
| --- | --- |
| 6,8-Diethoxycarbonyl-3(or 4)-methy-1,9-diazabicyclo [4.3.0]nona-3,8-dien-7-ol [Compound No. 35] | 50.6% |
| CCOC(=O)C1=NN2CC(C)=C(C)CC2(C(=O)OCC)C1O (centres unmarked) [Compound No. 29, 6,8-Diethoxycarbonyl-3,4-dimethylbicyclo[4.3.0]-1,9-diazanona-3,8-dien-7-ol] | 44.2% |
| COC(=O)C1=NN2C(c3ccccc3)C=CC(c3ccccc3)C2(C(=O)OC)C1O (centres unmarked) [Compound No. 31, 6,8-Dimethoxycarbonyl-2,5-diphenyl-1,9-diazabicyclo [4.3.0]nona-3,8-dien-7-ol] | 85.1% |
| COC(=O)C1=NN2C(c3cccc([N+](=O)[O-])c3)C=CC(c3cccc([N+](=O)[O-])c3)C2(C(=O)OC)C1O (centres unmarked) [Compound No. 48, 6,8-Dimethoxycarbonyl-2,5-bis(3-nitrophenyl)-7-hydroxy-1,9-diazabicyclo[4.3.0]nona-3,8-diene] | 72.4% |
| COC(=O)C1=NN2C(c3ccc(C#N)cc3)C=CC(c3ccc(C#N)cc3)C2(C(=O)OC)C1O (centres unmarked) [Compound No. 50, 6,8-Dimethoxycarbonyl-2,5-di(4-cyano)phenyl-7-hydroxy-1,9-diazabicyclo[4.3.0]nona-3,8-diene] | 69.8% |
| COC(=O)C1=NN2C(c3ccc(C(C)=O)cc3)C=CC(c3ccc(C(C)=O)cc3)C2(C(=O)OC)C1O (centres unmarked) [Compound No. 51, 2,5-Bis-(4-acetylphenyl)-6,8-dimethoxycarbonyl-7-hydroxy-1,9-diazabicyclo[4.3.0]nona-3,8-diene] | 55.0% |
| COC(=O)C1=NN2C(c3ccc(C)cc3)C=CC(c3ccc(C)cc3)C2(C(=O)OC)C1O (centres unmarked) [Compound No. 52, 6,8-Dimethoxycarbonyl-2,5-di-p-tolyl-7-hydroxy-1,9-diazabicyclo[4.3.0]nona-3,8-diene] | 49.3% |
| COC(=O)C1=NN2C(c3ccc([N+](=O)[O-])cc3)C=CC(c3ccc([N+](=O)[O-])cc3)C2(C(=O)OC)C1O (centres unmarked) [Compound No. 53, 6,8-Dimethoxycarbonyl-2,5-di(4-nitro)phenyl-7-hydroxy-1,9-diazabicyclo[4.3.0]nona-3,8-diene] | 60.0% |
| CCOC(=O)C1=NN2CC(C)=C(C)CC2(C(=O)OCC)C1N (centres unmarked) [Compound No. 81, 7-Amino-6,8-diethoxycarbonyl-3,4-dimethyl-1,9-diazabicyclo[4.3.0]nona-3,8-diene] | 56.2% |
| CCOC(=O)C1=NN2CC(C)=C(C)CC2(C(=O)OCC)C1S (centres unmarked) [Compound No. 82, 6,8-Diethoxycarbonyl-3,4-dimethyl-7-mercapto-1,9-diazabicyclo[4.3.0]nona-3,8-diene] | 61.5% |
| COC(=O)C1=NN2C(c3ccccc3)C=CC(c3ccccc3)C2(C(=O)OC)C1N (centres unmarked) [Compound No. 94, 7-Amino-6,8-dimethoxycarbonyl-2,5-diphenyl-1,9-diazabicyclo[4.3.0]nona-3,8-diene] | 73.5% |
| CCCOC(=O)C1=NN2CC(C)=C(C)CC2(C(=O)OCCC)C1O (centres unmarked) [Compound No. 124, 3,4-Dimethyl-6,8-dipropoxycarbonyl-7-hydroxy-1,9-diazabicyclo[4.3.0]nona-3,8-diene] | 84.0% |
| CCCOC(=O)C1=NN2C(c3ccccc3)C=CC(c3ccccc3)C2(C(=O)OCC)C1O (centres unmarked) [Compound No. 139, 2,5-Diphenyl-6-ethoxycarbonyl-7-hydroxy-8-propoxycarbonyl-1,9-diazabicyclo[4.3.0]nona-3,8-diene] | 62.5% |
| CCN(CC)C(=O)C1=NN2C(c3ccccc3)C=CC(c3ccccc3)C2(C(=O)OC)C1O (centres unmarked) [Compound No. 173, 8-Diethylcarbamoyl-2,5-diphenyl-7-hydroxy-6-methoxycarbonyl-1,9-diazabicyclo[4.3.0]nona-3,8-diene] | 61.0% |
